Reference: paper doi:10.1101/2021.10.22.465361v1 (biorxiv, 2021)

target: T1, FABP7 (Brain fatty acid binding protein) (Homo sapiens, UniProt O15540); test: microscale thermophoresis
T1 sequence (O15540 2-132): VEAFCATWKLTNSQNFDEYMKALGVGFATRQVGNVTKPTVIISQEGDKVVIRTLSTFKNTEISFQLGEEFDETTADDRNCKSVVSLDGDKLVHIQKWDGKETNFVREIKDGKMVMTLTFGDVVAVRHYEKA

Kd, ~500 nM:
CC/C=C\C/C=C\C/C=C\C/C=C\C/C=C\C/C=C\CCC(=O)O [DHA, docosahexaenoic acid]
CCCCCCCC/C=C\CCCCCCCC(=O)O [OA, oleic acid]
CCCCCCCCCCCCCCCCCC(=O)O [SA, stearic acid]
